# Data: patent US8349793B2, “Method for treatment of inflammatory disease and disorder” (Heal0r, Ltd., priority 2010, dated 2013)
# “And” between values parts separate entries of the source, which are not always exact repeats. Equal entries are not always repeated. Where no end group is shown, it is not given here. The star is where a group is joined. Myristoyl = CCCCCCCCCCCCCC(=O)*
# Tests used:
# [1] = tested on: keratinocytes; experiment: Cytokine secretion in keratinocytes stimulated by LPS, TNFα or IL-17 (ELISA); type: cell-based, BALB/C mice
# Protocol: To determine their effects, keratinocytes were derived from newborn BALB/C mice skin. The cells were incubated for 5 days in 24 wells plate. Cells were then incubated with PBS−/− as control or stimulated by LPS, TNFα, or IL-17. PKCα inhibitors were added as indicated. Medium containing secreted cytokines was collected after 48 hr and analyzed using ELISA. FIG. 40 is a tabular summary of cytokine secretion.
# PKCδactivators were also shown to have an anti-inflammatory effect on keratinocytes and splenocytes. Keratinocytes were derived from newborn BALB/C mice skin. The cells were incubated for 5 days in 24 wells plate. Cells were then incubated with PBS−/− as control or stimulated by LPS or TNFα. The PKCδ inhibitor DAP-1 (SEQ ID NO: 16) was added. Medium containing secreted cytokines was collected after 48 hr and analyzed using ELISA. FIG. 35 is a tabular summary showing cytokine secretion in splenocytes stimulated with LPS. […] Cytokine secretion in keratinocytes stimulated by TNFα: following stimulation with 35 ng/ml TNFα. And treatment with 10 μg/ml of DAP-1, the cytokine levels of IL-1α, G-CSF, MIP-2 and KC were reduced by 95%, 70%, 20% and 30# respectively.
# PKCε inhibitors were also shown to have an anti-inflammatory effect on keratinocytes. Keratinocytes were derived from newborn BALB/C mice skin. The cells were incubated for 5 days in 24 wells plate. Cells were then incubated with PBS−/− as control or stimulated by LPS or TNFα. The PKCεinhibitors EPIP-1 (SEQ ID NO: 20), EPIP-2 (SEQ ID NO: 21), or EPIP-4 (SEQ ID NO: 23) were added. Medium containing secreted cytokines was collected after 48 hr and analyzed using ELISA. FIGS. 36-39 show the results for secretion of specific cytokines while Table 8 summarizes cytokine secretion for the various PKCε inhibitors: […]
# [2] = tested on: healthy volunteers; experiment: Histamine prick test model of pruritus; type: in vivo, human (healthy volunteers); conditions: for Pruritus score after minutes of histamine, 5 minutes / Pruritus score after minutes of histamine, 15 minutes: topical on forearm
# Protocol: Forearms of individual subjects were injected with histamine solution and placebo. The formulation of Example 4 was topically applied with MPDY-1 at various concentrations and pruritus was assessed over a time course as shown, for example in FIG. 34.
# This test was performed by placing a drop of a solution containing a possible allergen on the skin, and a series of scratches or needle pricks allow the solution to enter the skin. The extract enters into the outer layer of the skin (epidermis) using a fine needle (such as a. 26G disposable needle). This testing is not painful, and generally there is no bleeding involved since the needle only scratches the surface of the skin. If the skin develops a red, raised itchy area (called a wheal), it is as a result of allergic reaction to that allergen. This is called a positive reaction. A drop of extract is introduced through a fine needle (such as a No. 26 disposable needle). The test causes no discomfort and minimal trauma so that controls and negative test show only the site of the prick; if anything.
# 26G needles were utilized to introduce histamine stock (Histatrol Positive Control Histamine, 1 mg/ml, code #HIST14999V, Trupharm). The test was conducted on healthy volunteers in a double-blind, randomized test. The formulations were applied on the forearms. Three treatment areas were chosen and marked (the surface of the forearm from the elbow to the wrist was divided transversely into proximal, middle and distal thirds); the areas were pricked prior the below treatments.
# An area was treated with the active formulation in a double-blind manner, for 10 minutes—marked as A.
# An area was treated with the Placebo in a double-blind manner, for 10 minutes—marked as C.
# A color photograph was taken at time zero (T0), after 10, 20, 30 minutes.
# Pruritus questionnaire was answered by the subjects 5 and 15 minutes after treatment.
# In one study, three subjects were treated, in the left or right arm, with MDPY-1 in gel or cream formulations, or with control formulations, as shown in Table 9.
# Subjects were provided with pruritus sensation forms and asked to indicate the level of pruritus sensed from 0 (no response) to 4 (uncontrollable pruritus) at different time intervals.
# [3] = tested on: C57BL/6J mouse; experiment: Wound model of skin inflammation, immunohistochemical staining (ICAM-1, Iba-1, MAC-2, CD3, neutrophils); type: in vivo; conditions: treated daily
# From the text: A methodology was developed to detect and quantitatively assess inflammation in skin lesions in a wound setting which allows one to follow cutaneous inflammatory response in the different skin compartments and identify agents that affect this response (as a preliminary screening). Inflammatory response was considered severe when two of the following three conditions were evident: (1) abscess formation; (2) excessive leukocytosis (>100 cells in a fixed field×200); (3) high WB C/RBC ratio in blood vessels, where >20% of WBC content within the blood vessels is shown in a fixed field×200. Mechanistic characterization of the immunological response is studied utilizing markers to identify infiltration and activation of specific immunological cells. Examples for such markers are: ICAM-1 (as a marker activated basal keratinocytes and endothelial cells), MAC-2 (as a marker for activated macrophages) and CD3 (T cell marker).
# (§1) A two-cm longitudinal incision was done on the upper back of a C57BL/6J mouse. Following wounding, a sterile pad was sutured to the mouse's skin. Animals were treated daily with HO/02/10 (n=12). Five days post-wounding, when inflammatory phase reaches its peak, the mice were sacrificed, skin tissues were embedded in paraffin and immunohistochemical staining was performed utilizing anti-ICAM-1 antibodies.
# as §1, with “As above, a two-cm” for “A two-cm”, “with MPDY-1 (n=6).” for “with HO/02/10 (n=12).”
# The effect of MPDY-1 on macrophage infiltration was also shown by Iba-1 staining. Iba-1 is a general marker for macrophages. […] As above, a two-cm longitudinal incision was done on the upper back of a C57BL/6J mouse. Following wounding, a sterile pad was sutured to the mouse's skin. Animals were treated daily with MPDY-1 (n=6). […]
# [4] = tested on: IKK; experiment: TNFα induced IKK activation in keratinocytes (Western Blot, phospho-IKKa/b); type: cell-based, Murine; conditions: TNFα 35 ng/ml for 15 minutes
# Protocol: Murine primary keratinocytes were grown for 4 days to full confluence in Low Ca^+2 MEM. Cells were pretreated with designated concentration of MPDY-1 as described in the figure for 1 hour, prior to TNFα induction. Following MPDY-1 pretreatment, cells were incubated with TNFα 35 ng/ml for 15 minutes. Reaction was stopped by adding ice-cold dPBS−/− and keratinocytes were homogenized in RIPA buffer. Samples were subjected to SDS PAGE Western Blot analysis, utilizing phospho-IKKa/b (Ser176/180 antibody).
# [5] = 10 ppm in gel, score 0 (no response) to 4 (uncontrollable pruritus)
substance,measurement,setting,value
Myristoyl-Phe-Ala-Arg-Lys-Gly-Ala-Leu-Arg-Gln (Myristoyl-FARKGALRQ) [MPDY-1],cytokine secretion from LPS and TNFα activated keratinocytes,[1]; FIGS. 19 to 23,decrease
same,cytokine secretion from IL-17A activated keratinocytes,[1]; FIGS. 24 to 27,decrease
same,cytokine secretion in keratinocytes,"[1]; stimulated by LPS, TNFα, or IL-17, 48 hr",effective in decreasing cytokine secretion
same,"Pruritus score after minutes of histamine, 5 minutes","[2]; 1 μg/ml in DPBS, score 0 to 4",3
same,"Pruritus score after minutes of histamine, 15 minutes","[2]; 1 μg/ml in DPBS, score 0 to 4",1
same,"Pruritus score after minutes of histamine, 5 minutes","[2]; 10 μg/ml in DPBS, score 0 to 4",2 and 1
same,"Pruritus score after minutes of histamine, 15 minutes","[2]; 10 μg/ml in DPBS, score 0 to 4",0
same,"Pruritus score after minutes of histamine, 5 minutes","[2]; 10 ppm in cream, score 0 to 4",1
same,"Pruritus score after minutes of histamine, 15 minutes","[2]; 10 ppm in cream, score 0 to 4",0
same,"Pruritus score after minutes of histamine, 5 minutes",[2]; [5],2
same,"Pruritus score after minutes of histamine, 15 minutes",[2]; [5],0
same,"redness, inflammation and pruritus as compared with control","[2]; histamine prick test, over the time course",significantly attenuated
same,Activation of macrophages (MAC-2 staining),"[3]; 5 days, 1, 10 and 100 micrograms per mL",significantly inhibited
same,ICAM expression on basal keratinocytes and endothelial cells in blood vessels of the skin (ICAM-1 staining),[3]; five days post-wounding,down regulation
same,macrophage infiltration (Iba-1 staining),[3]; five days post-wounding,dose dependent effect
same,MPDY-1 concentration exhibiting the strongest inhibition of IKK activation,[4]; lowest concentration tested,0.1 mg/mL
same,TNFα induced IKK activation in keratinocytes,"[4]; pretreated 1 hour, dose dependant",significantly reduced
